Laboratory results as given in publication PMC6501426 (Clinical Epigenetics, 2019).

What was measured:
[1] = tested on: methylated UCHL1 promoter EGFP reporter in HCT116 cells; experiment: UCHL1 promoter demethylation assay (EGFP expression, FACS) in HCT116; type: cell-based, human; conditions: 5 days, HCT116 with methylated pUCHL1 vector
Method: Human colon cancer HCT116 (ATCC, VA, USA) cells were propagated in McCoy’s 5A medium (Euroclone, Milan, Italy) with 10% fetal bovine serum (FBS; Euroclone), 2 mM L-glutamine (Euroclone), and antibiotics (100 U/mL penicillin, 100 µg/mL streptomycin) (Euroclone). For the treatments with MC3353, 5-AZA, and DAC as positive controls, 2 × 10^4 cells were seeded in 6-well plates in triplicate. Cells were treated every 2 days, and the medium was changed. On day 5, cells were observed under a fluorescent microscope. The nuclei were counterstained with DAPI (10 μg/mL, Invitrogen, Tournai, Belgium).
Fluorescence of EGFP and DAPI in living cells was analyzed by Cytation™ 5 Cell Imaging Multi-Mode Reader (BioTeK, Milan, Italy).
Before the transfection, the pUMLIEP vector was linearized by with ClaI restriction enzyme (New England Biolabs, Milan, Italy) and then it was methylated by SssI-methylase (New England Biolabs, Milan, Italy) for 60 min. The methylated vector was transfected into HCT116 cells using Lipofectamine™2000 (Invitrogen, Monza, Italy) and Opti-MEM® (Gibco, Monza, Italy), and stably introduced clones were selected with puromycin (1.0 μg/mL, Sigma-Aldrich, Milan, Italy). The detailed protocol for the generation of cells highly responsive to DNA demethylating agents is described in [27].
Next, the demethylating activity of MC3353 was evaluated in cells transfected with luciferase and EGFP reporter genes driven by the UCHL1 promoter. The UCHL1 promoter is silenced by methylation in human colon cancer and can be demethylated by specific treatments, inducing expression of Metridia luciferase and EGFP reporter genes. In particular, the pUCHL1 vector, after methylation, was transfected into HCT116 colon cancer cells, and the stable clone was obtained by puromycin selection. Afterwards, cells were treated with 5-AZA (5 μM), with DAC (5 μM), or with MC3353 (0.1 μM) for 5 days. Such a low MC3353 dose was used because of its cytotoxicity at higher concentrations in long treatments.

[2] = tested on: E-cadherin mRNA in HCT116 cells; experiment: qPCR of E-cadherin in HCT116; type: cell-based, human; conditions: MC3353 0.1 μM 24 h; 5-AZA, DAC every 2 days for 5 days at 0.1, 1, 5 μM
Text: RNAs were extracted by ReliaPrep™ RNA Tissue Miniprep (Promega, Madison, WI, USA) and reverse transcribed with PrimeScript RT Master Mix (Takara, Kusatsu, Shiga, Japan). cDNAs were amplified by a qPCR reaction using GoTaq qPCR Master Mix (Promega) and analyzed with the oligonucleotide pairs specific for the target genes. Relative amounts, determined with the 2^(−ΔCt) method, were normalized with respect to the human housekeeping gene L32. The primers used are as follows: L32 (forward: 5′-[…]-3′, reverse: 5′-[…]-3′), E-cadherin (forward: 5′-[…]-3′, reverse: 5′-[…]-3′), and MMP2 (forward: 5′-[…]-3′, reverse: 5′-[…]-3′).
Prompted by these findings, we investigated the ability of MC3353 to modulate EMT pathway, using 5-AZA and DAC as reference drugs. […] The levels of mRNA transcripts of E-cadherin and matrix metalloproteinase-2 (MMP2) were determined. E-cadherin is involved in the maintenance of the epithelial identity and in the control of tumor invasiveness, whereas MMP2, through degradation of type IV collagen, the most abundant component of the basement membrane, controls an essential step for metastatic progression of most cancers as well as for induction of angiogenesis.

MNK2 (h) = biological target: T1, MNK2 (h) (Homo sapiens, UniProt Q9HBH9); experiment: Kinase panel (Cerep); type: biochemical; conditions: read-out: % inhibition at 10 µM by MC3353, MNK2 (h), ATP 100 μM
T1 construct: purchased Eurofins Cerep
T1 sequence (Q9HBH9 whole entry): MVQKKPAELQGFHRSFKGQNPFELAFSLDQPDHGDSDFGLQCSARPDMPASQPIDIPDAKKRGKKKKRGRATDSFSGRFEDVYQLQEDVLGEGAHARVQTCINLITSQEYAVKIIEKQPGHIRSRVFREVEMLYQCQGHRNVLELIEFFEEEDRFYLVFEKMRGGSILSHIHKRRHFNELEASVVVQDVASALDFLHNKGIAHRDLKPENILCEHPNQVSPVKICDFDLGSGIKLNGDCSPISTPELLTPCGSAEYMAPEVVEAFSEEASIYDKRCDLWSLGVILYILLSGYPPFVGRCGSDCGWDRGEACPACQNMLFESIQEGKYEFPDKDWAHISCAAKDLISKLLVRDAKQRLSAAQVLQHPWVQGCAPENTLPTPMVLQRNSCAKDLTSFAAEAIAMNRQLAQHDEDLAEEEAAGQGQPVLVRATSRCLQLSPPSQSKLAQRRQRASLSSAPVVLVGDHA
Method: (§1) The test compound, reference compound or water (control) were mixed with the enzyme (for the exact amount see table below) in the appropriate buffer. Thereafter, the reaction was initiated by adding the required amount of the appropriate substrate and of ATP, and the mixture is incubated at room temperature (variable reaction time, see table below). For control basal measurements, the enzyme was omitted from the reaction mixture. Following incubation, the reaction was stopped by adding 13 mM EDTA. After 5 min, the proper antibody labelled with europium chelate was added. After 60 more min, the fluorescence transfer was measured at λex=337 nm, λem=620 nm and λem=665 nm using a microplate reader (Envision, Perkin Elmer). The enzyme activity was determined by dividing the signal measured at 665 nm by that measured at 620 nm (ratio). The results are expressed as a percent inhibition of the control enzyme activity.

c-Met kinase (h) = biological target: T2, c-Met kinase (h) (Homo sapiens, UniProt P08581); experiment: Kinase panel (Cerep); type: biochemical; conditions: read-out: % inhibition at 10 µM by MC3353, c-Met kinase (h), ATP 10 μM
T2 construct: purchased Eurofins Cerep
T2 sequence (P08581 25-1390): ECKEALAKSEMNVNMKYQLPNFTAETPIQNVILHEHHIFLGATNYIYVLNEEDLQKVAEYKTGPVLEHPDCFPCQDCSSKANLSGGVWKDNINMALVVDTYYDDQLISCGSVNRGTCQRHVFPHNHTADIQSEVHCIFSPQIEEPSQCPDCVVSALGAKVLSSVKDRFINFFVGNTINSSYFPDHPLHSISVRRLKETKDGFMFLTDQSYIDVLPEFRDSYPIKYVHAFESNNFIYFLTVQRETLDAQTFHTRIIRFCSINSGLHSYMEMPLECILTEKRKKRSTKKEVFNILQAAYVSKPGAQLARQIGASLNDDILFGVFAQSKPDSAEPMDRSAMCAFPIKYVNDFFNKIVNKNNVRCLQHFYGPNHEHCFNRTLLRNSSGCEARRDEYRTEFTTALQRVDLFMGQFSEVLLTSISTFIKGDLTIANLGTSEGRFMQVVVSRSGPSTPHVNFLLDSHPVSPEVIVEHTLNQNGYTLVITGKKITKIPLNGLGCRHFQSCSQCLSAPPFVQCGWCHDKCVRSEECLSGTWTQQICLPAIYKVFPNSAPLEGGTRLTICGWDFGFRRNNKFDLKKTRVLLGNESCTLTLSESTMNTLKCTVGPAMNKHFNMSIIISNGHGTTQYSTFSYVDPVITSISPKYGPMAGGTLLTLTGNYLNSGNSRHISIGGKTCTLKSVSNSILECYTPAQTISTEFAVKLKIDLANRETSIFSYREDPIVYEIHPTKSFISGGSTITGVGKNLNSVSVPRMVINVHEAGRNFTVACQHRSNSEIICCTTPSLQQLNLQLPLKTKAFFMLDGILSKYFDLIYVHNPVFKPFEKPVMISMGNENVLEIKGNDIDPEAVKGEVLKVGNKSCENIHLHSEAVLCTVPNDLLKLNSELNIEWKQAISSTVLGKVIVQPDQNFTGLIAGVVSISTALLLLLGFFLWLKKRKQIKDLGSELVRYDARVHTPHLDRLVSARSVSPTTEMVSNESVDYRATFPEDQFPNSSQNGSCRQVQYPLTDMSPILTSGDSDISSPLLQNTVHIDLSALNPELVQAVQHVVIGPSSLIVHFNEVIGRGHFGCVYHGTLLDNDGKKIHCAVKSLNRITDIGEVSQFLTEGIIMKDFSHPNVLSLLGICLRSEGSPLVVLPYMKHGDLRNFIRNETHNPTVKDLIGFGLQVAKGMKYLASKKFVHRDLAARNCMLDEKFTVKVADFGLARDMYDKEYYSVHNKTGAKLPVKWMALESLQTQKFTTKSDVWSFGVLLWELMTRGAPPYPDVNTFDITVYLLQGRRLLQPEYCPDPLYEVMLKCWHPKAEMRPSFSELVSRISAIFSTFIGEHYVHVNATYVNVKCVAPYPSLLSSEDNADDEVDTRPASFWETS
Method: as §1

FGFR1 kinase (h) = biological target: T3, FGFR1 kinase (h) (Homo sapiens, UniProt P11362); experiment: Kinase panel (Cerep); type: biochemical; conditions: read-out: % inhibition at 10 µM by MC3353, FGFR1 kinase (h), ATP 100 μM
T3 construct: purchased Eurofins Cerep
T3 sequence (P11362 22-822): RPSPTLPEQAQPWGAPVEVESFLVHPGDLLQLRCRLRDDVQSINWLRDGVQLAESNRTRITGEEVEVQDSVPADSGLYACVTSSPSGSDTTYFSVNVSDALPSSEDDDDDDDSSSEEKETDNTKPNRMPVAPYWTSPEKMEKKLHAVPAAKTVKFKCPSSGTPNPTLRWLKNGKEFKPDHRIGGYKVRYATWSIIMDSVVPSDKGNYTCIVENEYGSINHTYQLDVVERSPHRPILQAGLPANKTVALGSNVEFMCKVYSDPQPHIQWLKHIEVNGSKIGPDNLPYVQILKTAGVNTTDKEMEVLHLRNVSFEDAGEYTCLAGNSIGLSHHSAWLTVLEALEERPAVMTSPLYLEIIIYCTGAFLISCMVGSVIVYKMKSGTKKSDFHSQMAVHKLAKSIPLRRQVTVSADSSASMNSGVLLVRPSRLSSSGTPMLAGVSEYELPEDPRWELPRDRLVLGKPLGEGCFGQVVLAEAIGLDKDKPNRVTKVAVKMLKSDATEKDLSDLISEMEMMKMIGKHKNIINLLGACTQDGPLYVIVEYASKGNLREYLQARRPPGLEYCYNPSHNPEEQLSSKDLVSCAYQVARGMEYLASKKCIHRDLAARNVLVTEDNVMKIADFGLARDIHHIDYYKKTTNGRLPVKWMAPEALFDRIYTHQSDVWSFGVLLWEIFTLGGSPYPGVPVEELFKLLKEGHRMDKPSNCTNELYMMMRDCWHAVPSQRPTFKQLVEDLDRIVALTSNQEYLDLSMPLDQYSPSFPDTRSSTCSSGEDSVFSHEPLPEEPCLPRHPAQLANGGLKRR
Method: as §1

FGFR3 kinase (h) = biological target: T4, FGFR3 kinase (h) (Homo sapiens, UniProt P22607); experiment: Kinase panel (Cerep); type: biochemical; conditions: read-out: % inhibition at 10 µM by MC3353, FGFR3 kinase (h), ATP 10 μM
T4 construct: purchased Eurofins Cerep
T4 sequence (P22607 23-806): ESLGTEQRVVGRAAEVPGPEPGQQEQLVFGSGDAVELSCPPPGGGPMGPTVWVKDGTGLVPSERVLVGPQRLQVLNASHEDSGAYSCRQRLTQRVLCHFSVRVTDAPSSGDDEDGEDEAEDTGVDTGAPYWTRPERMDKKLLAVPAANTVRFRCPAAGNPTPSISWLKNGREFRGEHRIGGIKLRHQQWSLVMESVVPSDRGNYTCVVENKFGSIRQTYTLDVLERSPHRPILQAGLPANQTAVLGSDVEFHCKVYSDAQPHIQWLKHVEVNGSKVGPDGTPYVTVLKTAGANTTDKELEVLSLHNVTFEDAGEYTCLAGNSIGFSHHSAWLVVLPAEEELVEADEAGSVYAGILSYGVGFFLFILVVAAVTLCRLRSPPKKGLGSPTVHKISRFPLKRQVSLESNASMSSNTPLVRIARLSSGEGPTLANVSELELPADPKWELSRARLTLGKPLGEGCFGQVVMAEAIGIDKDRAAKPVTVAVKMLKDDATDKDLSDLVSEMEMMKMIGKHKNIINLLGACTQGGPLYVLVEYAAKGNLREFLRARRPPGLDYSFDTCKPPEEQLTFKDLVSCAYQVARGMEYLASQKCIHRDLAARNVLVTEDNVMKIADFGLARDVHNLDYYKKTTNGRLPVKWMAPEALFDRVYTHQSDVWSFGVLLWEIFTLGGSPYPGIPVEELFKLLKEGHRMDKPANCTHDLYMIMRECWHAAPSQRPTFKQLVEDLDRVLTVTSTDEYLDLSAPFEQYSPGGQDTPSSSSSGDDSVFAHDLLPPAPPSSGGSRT
Method: as §1

[3] = tested on: MMP2 protein in PC-3 cells; experiment: Western blot of MMP2 in PC-3; type: cell-based, human; conditions: 1 μM, 24 h
Text: Cells were lysed in Laemmli buffer; subsequently, the proteins were resolved by sodium dodecyl sulfate-polyacrylamide gel electrophoresis and transferred to a 0.45-μm nitrocellulose membrane (Bio-Rad Laboratories, Hercules, CA). The following primary antibodies were used for immunoblotting: α-E-cadherin (BD Transduction Laboratories, Franklin Lakes, NJ), α-MMP2 (Abcam), α-DNMT3a (Santa Cruz Biotechnologies, Dallas, TX), and α-GAPDH (Millipore Corp., Bedford, MA), used as a loading control. The immune complexes were detected with horseradish peroxidase-conjugated species-specific secondary antiserum (Bio-Rad Laboratories, Milan, Italy) then by enhanced chemiluminescence reaction (Bio-Rad Laboratories, Milan, Italy). Densitometric analysis of protein expression was performed by using the Fiji ImageJ image processing package.
Fig. 8 Effects of MC3353 on E-cadherin and MMP2 protein expression levels in PC-3 cancer cells. Cells were treated with vehicle (DMSO) used as control (CTR) or MC3353 for 24 h. a E-cadherin and MMP2 protein detection by western blot. GAPDH was used as a loading control. Blots are representative of three independent experiments. b Densitometric analysis of E-cadherin and MMP2 protein expression. Significance is represented as *p < 0.05 related to the control groups. Data were obtained from three independent experiments and expressed as mean ± SEM

| SMILES | EGFP gene expression induction (FACS) ([1]; 5 μM) | E-cadherin mRNA expression, HCT116 [2] | EGFP gene expression induction (FACS) ([1]; 0.1 μM) | inhibition at 10 µM (MNK2 (h)) | inhibition at 10 µM (c-Met kinase (h)) | inhibition at 10 µM (FGFR1 kinase (h)) | inhibition at 10 µM (FGFR3 kinase (h)) | MMP2 protein level (western blot, densitometry), PC-3 [3] |
| --- | --- | --- | --- | --- | --- | --- | --- | --- |
| Nc1ncn([C@H]2C[C@H](O)[C@@H](CO)O2)c(=O)n1 [DAC, 5-aza-2′-deoxycytidine, reference compound] | 49.7% | able to induce E-cadherin expression | – | – | – | – | – | – |
| O=C(Nc1ccc(NC(=O)c2ccc(Nc3ccnc4ccccc34)cc2)cc1)OCc1ccccc1 [MC3353, Benzyl (4-(4-(quinolin-4-ylamino)benzamido)phenyl)carbamate] | – | induced E-cadherin mRNA expression transcripts | 81.4% | 21% | -116% | -200% | -169% | reduced MMP2 protein levels |
